Where two headings read alike, the source gives them in different places. Ends that are not written are not given here. Peptide text beside a SMILES is read from it.
Key:
KDM7A dual domain = KDM7A dual domain (Homo sapiens, UniProt Q6ZMT4); test: MALDI-TOF-MS KDM7 activity assay (H3 peptide demethylation); format: biochemical
Description: Fig. 5 KDM7 PHD-finger inhibition by OC9 modulates dual domain JmjC activity. (a) (i–iii) OC9 inhibits demethylation of H3K9me2, with or without K4me3, by KDM7B (0.4 μM) on H3 peptide (2.5 μM). […] (b) (i–iii) OC9 enhances demethylation of H3K4me3K9me2 by KDM7A (0.55 μM) on H3 peptide (2.5 μM), and (iv) enhances KDM7A (0.5 μM) demethylation of calf histone extracts (50 μg). […] Inset MALDI-TOF-MS overlays are from respective highest OC9 concentration points compared to DMSO alone. KDM7 PHD-finger only proteins had no demethylase activity (Fig. S40 ^†). Calf histone H3K9me2 was quantitated relative to H4 band intensities at each time point, normalised to DMSO at t = 0. Full Western blots available in Fig. S42. ^† Relative rates (Krel min^−1) from a one-phase decay model, average from N = 3 independent experiments. […] The enzyme heading of the panel (KDM7B / KDM7A) was put in front of them. / DMSO is the vehicle control. Its printed rates (0.30 min^-1 in a, 0.04 min^-1 in b) are included because they are printed with its name.
In contrast to KDM7B, KDM7A lacks activity against H3K4me3K9me2, but demethylates H3_1–21K9me2.[57] OC9, however, restored the activity of KDM7A against H3_1–21K4me3K9me2 from <5% to a level (∼30%) that approached demethylation on H3_1–21K9me2 with DMSO alone (∼40%) (Fig. 5b and S39 ^†). […]

KDM7B PHD [1] = target: T1, KDM7B PHD (Homo sapiens, UniProt Q9UPP1); test: BLI binding; parameters: key to BLI Screening, KDM7B PHD: (+) = binding; (-) = no binding; (NS) = non-specific; settings: for BLI Screening, KDM7B PHD: qualitative assessment of binding by BLI
T1 construct: KDM7B 1-66; made in house
T1 sequence (Q9UPP1 1-66 isoform Q9UPP1-2): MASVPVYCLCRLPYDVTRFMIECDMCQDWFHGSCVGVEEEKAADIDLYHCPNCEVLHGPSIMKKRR
Excerpt: (§1) Figure S2. BLI for KDM7 proteins with cyclic peptides.
(§2) BLI traces for b inding to KDM7 protein domains immobilised by C-terminal His -tag on Ni -NTA
(§3) biosensors, against cyclic peptides. Response trace for each peptide concentration is represented by
(§4) a different colour, with the fitted curves overlaid in black.
(§5) concentration plotted, with 2-fold dilutions thereafter. Dual domain = PHD+JmjC. […]
(§6) against KDM7 and other protein domains. t1/2 = half life (0.693 / Koff)
(§7) (1 picture or pasted object on this page, not shown here)

KDM7B Dual (PHD+JmjC) = target: T2, KDM7B Dual (PHD+JmjC) (Homo sapiens, UniProt Q9UPP1); test: BLI binding; parameters: key to BLI Screening, KDM7B Dual: (+) = binding; (-) = no binding; (NS) = non-specific; settings: for koff / kon / Kd: 1:1 binding model; for Kd: His-tagged protein on Ni-NTA biosensors; for BLI Screening, KDM7B Dual: qualitative assessment of binding by BLI
T2 construct: Dual domain = PHD+JmjC; made in house
T2 sequence (Q9UPP1 37-483 limits assumed): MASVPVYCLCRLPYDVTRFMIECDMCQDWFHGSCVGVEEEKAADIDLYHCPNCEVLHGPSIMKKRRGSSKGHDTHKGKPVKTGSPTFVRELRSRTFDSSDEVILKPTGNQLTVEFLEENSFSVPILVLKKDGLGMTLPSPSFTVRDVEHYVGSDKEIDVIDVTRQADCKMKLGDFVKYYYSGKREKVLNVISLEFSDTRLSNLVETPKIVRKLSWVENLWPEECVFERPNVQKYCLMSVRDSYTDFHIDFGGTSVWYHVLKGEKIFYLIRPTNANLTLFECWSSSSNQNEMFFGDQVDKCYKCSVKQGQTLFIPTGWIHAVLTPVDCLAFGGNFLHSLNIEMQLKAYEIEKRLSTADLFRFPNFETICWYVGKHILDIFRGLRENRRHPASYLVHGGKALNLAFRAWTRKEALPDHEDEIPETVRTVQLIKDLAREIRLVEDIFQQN
Excerpt: as §1, §2, §3, §4, §5, §6, §7

KDM7B JmjC = target: T3, KDM7B JmjC (Homo sapiens, UniProt Q9UPP1); test: BLI binding; parameters: key to BLI Screening, KDM7B JmjC: (+) = binding; (-) = no binding; (NS) = non-specific; settings: for Kd: read-out: BLI pKD, KDM7B JmjC (converted); for BLI Screening, KDM7B JmjC: qualitative assessment of binding by BLI
T3 construct: made in house
T3 sequence (Q9UPP1 231-387 limits assumed): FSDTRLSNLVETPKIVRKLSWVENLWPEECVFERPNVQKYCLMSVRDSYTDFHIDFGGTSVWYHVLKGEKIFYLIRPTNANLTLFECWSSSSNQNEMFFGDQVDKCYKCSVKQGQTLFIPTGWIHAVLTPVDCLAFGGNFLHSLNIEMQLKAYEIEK
Excerpt: as §1, §2, §3, §4, §5, §6, §7

KDM7B Dual = target: T4, KDM7B Dual (Homo sapiens, UniProt Q9UPP1); test: ITC binding
T4 construct: Dual = PHD+JmjC; made in house
T4 sequence (Q9UPP1 37-483 limits assumed): as the sequence (Q9UPP1 37-483 limits assumed) above
Description: Figure S10. ITC results: Tabulated values from 1:1 binding model and conditions
ITC buffer = 50 mM HEPES, 100 mM NaCl, pH 7.4, 0.2 µm filtered), at 25 °C. Dual = PHD+JmjC. HisTrx
= His 6+thioredoxin tag, GST = glutathione S -transferase tag, ZB = Z -basic tag. Syringe contained
peptide solution in buffer. Cell contained protein solution in buffer.
as §7

KDM7B dual domain = target: T5, KDM7B dual domain (Homo sapiens, UniProt Q9UPP1); test: HDX-MS; format: binding; settings: relative to DMSO
T5 construct: dual domain (PHD-JmjC) of KDM7B; His-tag (C); made in house
T5 sequence (Q9UPP1 37-483 limits assumed): as above
Excerpt: To further evaluate the interactions of OC9 with KDM7B we used hydrogen–deuterium exchange mass spectrometry (HDX-MS), which informs on protein dynamics by following deuterium incorporation into the protein amide backbone (Fig. 2).
The residue level view was generated by averaging mass changes across overlapping peptide fragments. Supporting data available in ESI. ^† K4me3 binding aromatic cage residues (‘YYMW’ Fig. 1a) are indicated by red asterix.

KDM7B PHD [2] = target: T1, KDM7B PHD; test: AlphaScreen displacement of H3 1-21K4me3-Bt; format: binding; settings: for reduced potency relative to OC9: affinity (BLI) and displacement (AS) assays, KDM7B PHD-finger
Excerpt: The functional effect of OC9 on the PHD-finger was further assessed using an AlphaScreen (AS) based proximity assay. […]

[3] = His-tagged protein on Ni-NTA biosensors, 1:1 binding model, read-out: BLI KD, KDM7B PHD

Chain of KDM7A dual domain (Q6ZMT4 38-480 limits assumed): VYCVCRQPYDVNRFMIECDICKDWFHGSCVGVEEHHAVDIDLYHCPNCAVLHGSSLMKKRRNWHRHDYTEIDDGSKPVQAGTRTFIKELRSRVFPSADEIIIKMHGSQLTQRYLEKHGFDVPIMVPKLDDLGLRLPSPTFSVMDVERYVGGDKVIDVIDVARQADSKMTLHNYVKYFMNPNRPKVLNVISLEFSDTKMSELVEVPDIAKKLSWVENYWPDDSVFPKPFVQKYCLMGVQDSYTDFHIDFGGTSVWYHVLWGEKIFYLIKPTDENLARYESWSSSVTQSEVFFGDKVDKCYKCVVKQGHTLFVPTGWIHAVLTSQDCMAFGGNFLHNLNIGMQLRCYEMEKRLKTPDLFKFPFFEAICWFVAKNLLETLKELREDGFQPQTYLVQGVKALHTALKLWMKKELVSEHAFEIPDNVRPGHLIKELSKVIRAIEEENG

Compound: CN(C)NC(=O)CCC(=O)O [DAM, daminozide, reference compound]
- IC50 (KDM7A dual domain): 251 nM

Compound: CC[C@H](C)[C@@H]1NC(=O)[C@H](CC(C)C)NC(=O)[C@H](CCCNC(=N)N)NC(=O)[C@H](CCCNC(=N)N)NC(=O)[C@@H]2CCCN2C(=O)[C@H](Cc2ccc(O)cc2)NC(=O)[C@H](C(C)C)NC(=O)[C@H](CC(C)C)NC(=O)[C@H](CC(C)C)NC(=O)[C@H](C(C)C)NC(=O)[C@@H]2CCCN2C(=O)[C@H](Cc2ccc(O)cc2)NC(=O)CSC[C@@H](C(N)=O)NC1=O [OC3] (HELM PEPTIDE1{[O=C(C[*:3])[*:2]].Y.P.V.L.L.V.Y.P.R.R.L.I.C.[am]}$PEPTIDE1,PEPTIDE1,1:R3-14:R3$$$V2.0)
- Kd (KDM7B PHD [1]; [3]): > 1000 nM
- BLI Screening, KDM7B PHD (KDM7B PHD [1]): -
- koff (KDM7B Dual (PHD+JmjC)): 0.0148 ± 0.0001 s⁻¹
- kon (KDM7B Dual (PHD+JmjC)): 502000 ± 5000 M⁻¹ s⁻¹
- Kd (KDM7B Dual (PHD+JmjC)): 29.5 nM
- BLI Screening, KDM7B Dual (KDM7B Dual (PHD+JmjC)): +
- Kd (KDM7B JmjC; 1:1 binding model): > 1000 nM
- BLI Screening, KDM7B JmjC (KDM7B JmjC): -
- Kd (KDM7B Dual; 50 mM HEPES, 100 mM NaCl, pH 7.4, 25 °C, 1:1 binding model): 163 nM
- ITC ΔH, KDM7B Dual (KDM7B Dual; 25 °C): -16.3 ± 1.5 kJ mol -1
- ITC N, KDM7B Dual (KDM7B Dual; stoichiometry): 1.37 ± 0.05
- HDX-MS effect on deuterium uptake, KDM7B dual domain (KDM7B dual domain): affected deuterium uptake in both domains

Compound: CC[C@H](C)[C@@H]1NC(=O)[C@H](Cc2c[nH]c3ccccc23)NC(=O)[C@H](CO)NC(=O)[C@H](CC(C)C)NC(=O)[C@H](Cc2ccc(O)cc2)NC(=O)[C@H](Cc2ccc(O)cc2)NC(=O)[C@H]([C@@H](C)O)NC(=O)CNC(=O)[C@H](Cc2ccc(O)cc2)NC(=O)[C@H](C(C)C)NC(=O)[C@H](Cc2ccc(O)cc2)NC(=O)CSC[C@@H](C(N)=O)NC(=O)[C@@H]2CCCN2C1=O [OC4] (HELM PEPTIDE1{[O=C(C[*:3])[*:2]].Y.V.Y.G.T.Y.Y.L.S.W.I.P.C.[am]}$PEPTIDE1,PEPTIDE1,1:R3-14:R3$$$V2.0)
- Kd (KDM7B PHD [1]; [3]): > 1000 nM
- BLI Screening, KDM7B PHD (KDM7B PHD [1]): -
- koff (KDM7B Dual (PHD+JmjC)): 0.0124 ± 0.0001 s⁻¹
- kon (KDM7B Dual (PHD+JmjC)): 212000 ± 2000 M⁻¹ s⁻¹
- Kd (KDM7B Dual (PHD+JmjC)): 58.6 nM
- BLI Screening, KDM7B Dual (KDM7B Dual (PHD+JmjC)): +
- koff (KDM7B JmjC; 1:1 binding model): 0.0245 ± 0.0001 s⁻¹
- kon (KDM7B JmjC; 1:1 binding model): 249000 ± 3000 M⁻¹ s⁻¹
- Kd (KDM7B JmjC; 1:1 binding model): 100 nM
- BLI Screening, KDM7B JmjC (KDM7B JmjC): +

Compound: CC(C)C[C@@H]1NC(=O)[C@H](Cc2ccc(O)cc2)NC(=O)[C@H](Cc2ccc(O)cc2)NC(=O)CSC[C@@H](C(N)=O)NC(=O)[C@H]([C@@H](C)O)NC(=O)[C@H](C)NC(=O)[C@H](Cc2ccccc2)NC(=O)[C@H](C(C)C)NC(=O)[C@H](CO)NC(=O)[C@@H]2CCCN2C(=O)[C@H](Cc2ccc(O)cc2)NC(=O)[C@@H]2CCCN2C(=O)[C@H](Cc2c[nH]cn2)NC(=O)[C@H]([C@@H](C)O)NC1=O [R12A] (HELM PEPTIDE1{[O=C(C[*:3])[*:2]].Y.Y.L.T.H.P.Y.P.S.V.F.A.T.C.[am]}$PEPTIDE1,PEPTIDE1,1:R3-15:R3$$$V2.0; C-terminus assumed)
- faster off-rate by BLI (vs OC9) (KDM7B PHD [1]): ~100 ×
- reduced potency relative to OC9 (KDM7B PHD [2]): much weaker

Compound: CC(C)C[C@@H]1NC(=O)[C@H](Cc2ccc(O)cc2)NC(=O)[C@H](Cc2ccc(O)cc2)NC(=O)CSC[C@@H](C(N)=O)NC(=O)[C@H]([C@@H](C)O)NC(=O)[C@H](CCCNC(=N)N)NC(=O)[C@H](Cc2ccccc2)NC(=O)[C@H](C(C)C)NC(=O)[C@H](C)NC(=O)[C@@H]2CCCN2C(=O)[C@H](Cc2ccc(O)cc2)NC(=O)[C@@H]2CCCN2C(=O)[C@H](Cc2c[nH]cn2)NC(=O)[C@H]([C@@H](C)O)NC1=O [S9A] (HELM PEPTIDE1{[O=C(C[*:3])[*:2]].Y.Y.L.T.H.P.Y.P.A.V.F.R.T.C.[am]}$PEPTIDE1,PEPTIDE1,1:R3-15:R3$$$V2.0; C-terminus assumed)
- reduced potency relative to OC9 (KDM7B PHD [2]): much weaker

Compound: CC(C)C[C@@H]1NC(=O)[C@H](Cc2ccc(O)cc2)NC(=O)[C@H](Cc2ccc(O)cc2)NC(=O)CSC[C@@H](C(N)=O)NC(=O)[C@H]([C@@H](C)O)NC(=O)[C@H](CCCNC(=N)N)NC(=O)[C@H](Cc2ccccc2)NC(=O)[C@H](CCCCN)NC(=O)[C@H](CO)NC(=O)[C@@H]2CCCN2C(=O)[C@H](Cc2ccc(O)cc2)NC(=O)[C@@H]2CCCN2C(=O)[C@H](Cc2c[nH]cn2)NC(=O)[C@H]([C@@H](C)O)NC1=O [V10K] (HELM PEPTIDE1{[O=C(C[*:3])[*:2]].Y.Y.L.T.H.P.Y.P.S.K.F.R.T.C.[am]}$PEPTIDE1,PEPTIDE1,1:R3-15:R3$$$V2.0; C-terminus assumed)
- Kd (KDM7B PHD [1]; read-out: BLI KD, KDM7B PHD-finger): > 10000 nM
- IC50 (KDM7B PHD [2]; read-out: IC50^AS, KDM7B PHD-finger): > 10000 nM

Compound: CC(C)C[C@@H]1NC(=O)[C@H](CO)NC(=O)[C@@H]2CCCN2C(=O)[C@H](Cc2ccc(O)cc2)NC(=O)[C@@H]2CCCN2C(=O)[C@H](Cc2c[nH]cn2)NC(=O)[C@H]([C@@H](C)O)NC(=O)[C@H](CC(C)C)NC(=O)[C@H](Cc2ccc(O)cc2)NC(=O)[C@H](Cc2ccc(O)cc2)NC(=O)CSC[C@@H](C(N)=O)NC(=O)[C@H]([C@@H](C)O)NC(=O)[C@H](CCCNC(=N)N)NC(=O)[C@H](Cc2ccccc2)NC1=O [V10L] (HELM PEPTIDE1{[O=C(C[*:3])[*:2]].Y.Y.L.T.H.P.Y.P.S.L.F.R.T.C.[am]}$PEPTIDE1,PEPTIDE1,1:R3-15:R3$$$V2.0; C-terminus assumed)
- reduction in KD in BLI compared to OC9 (KDM7B PHD [1]): > 80 fold
- reduction in t1/2 in BLI compared to OC9 (KDM7B PHD [1]): > 75 fold
- reduction in IC50^AS compared to OC9 (KDM7B PHD [2]): 10 fold

Compound: Ac-YYLTHPYPSVFRTC-NH2 (N-terminus and C-terminus assumed) [Linear]
- reduced potency relative to OC9 (KDM7B PHD [2]): > 100 fold

Compound: YIVPSPIWYHWVAC (also: sidechain bridge or staple (positions not given here)) [OC10]
- BLI Screening, KDM7B Dual (KDM7B Dual (PHD+JmjC)): -

Compound: YLVRIYPNKLIWWC (also: sidechain bridge or staple (positions not given here)) [OC6, enriched cyclic peptide, non-specific in BLI]
- BLI Screening, KDM7B PHD (KDM7B PHD [1]): NS
- BLI Screening, KDM7B Dual (KDM7B Dual (PHD+JmjC)): NS
- BLI Screening, KDM7B JmjC (KDM7B JmjC): NS

Compound: YPYILYPSVYTTNC (also: sidechain bridge or staple (positions not given here)) [OC8]
- BLI Screening, KDM7B Dual (KDM7B Dual (PHD+JmjC)): -
